Test systems include OVCAR-8 ovarian; SW-620 colon; MDA-MB-231 breast; RPMI-8226 leukemia; DU-145 prostate; SN12C renal; HCT-116 colon; CAKI-1 renal; SK-OV-3 ovarian; HOP-62 NSCLC; MALME-3M melanoma.
Holding throughout (assay): NCI-60 cell line screen, 48 h

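Interpolation was linear, between the two tested concentrations surrounding the appropriate level; five concentrations were tested over 48 hours in 96-well plates. TGI marks complete inhibition of growth.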 A value given as a limit tells only on which side of the number the result lay.

On to `CC1(C)CCc2c(c(N=Nc3ccc(F)cc3)c3ccccc3c2O)O1`, for which the TGI in the experiment with OVCAR-8 ovarian was greater than 100 µM; with SW-620 colon, greater than 100 µM; with MDA-MB-231 breast, greater than 100 µM; with RPMI-8226 leukemia, greater than 100 µM; in the experiment on DU-145 prostate, 35.8 µM; with SN12C renal, greater than 100 µM. For the same molecule, the TGI is greater than 100 µM in the experiment on HCT-116 colon; greater than 100 µM with CAKI-1 renal; greater than 100 µM with SK-OV-3 ovarian; 57.3 µM in the experiment on HOP-62 NSCLC; 68.5 µM in the experiment on MALME-3M melanoma.
For `C[C@H]1COC2=C1C(=O)C(=O)c1c2ccc2c1CCCC2(C)C`, the TGI in the experiment with OVCAR-8 ovarian was 22.9 µM; with SW-620 colon, 34.5 µM; in the experiment on MDA-MB-231 breast it was greater than 100 µM; in the experiment with RPMI-8226 leukemia it was 71.2 µM; in the experiment with DU-145 prostate, 2.08 µM; in the experiment on SN12C renal it was 21.1 µM. The TGI was 46.3 µM in the experiment on HCT-116 colon; greater than 54.9 µM in the experiment on CAKI-1 renal; 83.6 µM in the experiment with SK-OV-3 ovarian; 21.2 µM in the experiment with HOP-62 NSCLC; 2.07 µM in the experiment with MALME-3M melanoma.
For `OC(CC(O)(C(F)(F)F)C(F)(F)F)c1ccc(C(O)CC(O)(C(F)(F)F)C(F)(F)F)cc1` (configuration not stated), the TGI worked out at 29.5 µM in the experiment on OVCAR-8 ovarian; 35.8 µM in the experiment on SW-620 colon; 28.7 µM with MDA-MB-231 breast; 48.8 µM in the experiment on RPMI-8226 leukemia; 28.3 µM in the experiment on DU-145 prostate; 24 µM in the experiment on HCT-116 colon. Besides, the TGI was found to be 27.3 µM in the experiment with CAKI-1 renal, 31.9 µM in the experiment on SK-OV-3 ovarian, 35 µM in the experiment on HOP-62 NSCLC and 27.6 µM in the experiment with MALME-3M melanoma.
As to `Cc1cn(S(=O)(=O)c2ccccc2)c2c(OCc3ccccc3)cc(NS(C)(=O)=O)cc12`, the TGI was greater than 100 µM with OVCAR-8 ovarian; greater than 100 µM in the experiment with SW-620 colon; 32.8 µM in the experiment on MDA-MB-231 breast; greater than 63.7 µM in the experiment with RPMI-8226 leukemia; greater than 100 µM with DU-145 prostate; greater than 70.2 µM in the experiment with SN12C renal. Besides, the TGI with HCT-116 colon is greater than 100 µM; with CAKI-1 renal it was greater than 100 µM; with SK-OV-3 ovarian it was greater than 100 µM; with HOP-62 NSCLC it was greater than 100 µM; in the experiment with MALME-3M melanoma, 43.7 µM.
For the molecule `Cc1sc2nc3n(c(=O)c2c1C)N=CN(c1ccc(F)cc1)C3`, the TGI with OVCAR-8 ovarian, in the experiment with SW-620 colon, in the experiment on MDA-MB-231 breast, with RPMI-8226 leukemia, with DU-145 prostate and in the experiment on SN12C renal was greater than 100 µM each time. The TGI in the experiment on HCT-116 colon was 49 µM; in the experiment on CAKI-1 renal, greater than 100 µM; in the experiment on SK-OV-3 ovarian, greater than 100 µM; in the experiment on HOP-62 NSCLC, greater than 100 µM; in the experiment with MALME-3M melanoma, 57.2 µM.
On to `CCOC(=O)/C=C(\C(=O)OCC)n1ccc(=O)[nH]c1=O`, for which the TGI is greater than 53.4 µM in the experiment on OVCAR-8 ovarian; 7.85 µM in the experiment on SW-620 colon; 32.6 µM with MDA-MB-231 breast; 34.4 µM in the experiment with RPMI-8226 leukemia; greater than 76.9 µM with DU-145 prostate; 26.4 µM in the experiment with SN12C renal. Further, the TGI with HCT-116 colon is 19.6 µM; in the experiment on CAKI-1 renal it was 3.52 µM; in the experiment on SK-OV-3 ovarian it was greater than 76.1 µM; with HOP-62 NSCLC, 53.6 µM; in the experiment on MALME-3M melanoma, 24.2 µM.
For `Cc1ccc(NC(=O)CSC(N)=O)cc1C`, the TGI in the experiment with OVCAR-8 ovarian, with SW-620 colon, in the experiment on MDA-MB-231 breast, with RPMI-8226 leukemia, with DU-145 prostate and with SN12C renal was greater than 100 µM in each case. Also, the TGI with HCT-116 colon, with CAKI-1 renal, in the experiment on HOP-62 NSCLC and in the experiment with MALME-3M melanoma was greater than 100 µM each time.
On to `N#CC(C#N)=C1C(=O)NC(N)=C1C#N`, for which the TGI in the experiment on OVCAR-8 ovarian, in the experiment on SW-620 colon, in the experiment with MDA-MB-231 breast, in the experiment with RPMI-8226 leukemia, with DU-145 prostate and with SN12C renal was greater than 100 µM throughout. Moreover, the TGI in the experiment on HCT-116 colon, with CAKI-1 renal, in the experiment with SK-OV-3 ovarian, with HOP-62 NSCLC and in the experiment with MALME-3M melanoma was greater than 100 µM each time.
Consider `CCOC(=O)[C@@H]1ON2OC(OC3CCCC3(c3ccccc3)c3ccccc3)C(OC(C)=O)[C@H]3OC(=O)[C@@H]1C32` (some centres not stated), for which the TGI in the experiment on OVCAR-8 ovarian, with SW-620 colon, in the experiment with MDA-MB-231 breast, with RPMI-8226 leukemia, in the experiment on DU-145 prostate and in the experiment on SN12C renal was greater than 100 µM each time. In addition, the TGI in the experiment with HCT-116 colon, in the experiment on CAKI-1 renal, with SK-OV-3 ovarian and with HOP-62 NSCLC was greater than 100 µM in each case.
`Cc1ccc(-n2cc([Si](C)(C)C)nn2)s1`: the TGI in the experiment on OVCAR-8 ovarian, in the experiment on SW-620 colon, with MDA-MB-231 breast, in the experiment on RPMI-8226 leukemia, in the experiment on DU-145 prostate and with SN12C renal was greater than 100 µM each time. Moreover, the TGI with HCT-116 colon, in the experiment on CAKI-1 renal, in the experiment on SK-OV-3 ovarian and with MALME-3M melanoma was greater than 100 µM in each case.
Take `Cc1ccc(N=C2C(=Nc3ccc(C)cc3)N(c3ccc(C)cc3)C(=S)N2C(=O)c2ccccc2)cc1`: the TGI with SW-620 colon, in the experiment with MDA-MB-231 breast, with RPMI-8226 leukemia, in the experiment with DU-145 prostate, in the experiment on SN12C renal and with CAKI-1 renal was greater than 100 µM each time. Besides, the TGI in the experiment with SK-OV-3 ovarian, in the experiment on HOP-62 NSCLC and in the experiment with MALME-3M melanoma was greater than 100 µM throughout.
Regarding `O=C1C(=Cc2ccc(Cl)c(Cl)c2)C([O-])=C([P+](c2ccccc2)(c2ccccc2)c2ccccc2)C([O-])=C1[P+](c1ccccc1)(c1ccccc1)c1ccccc1`, the TGI in the experiment on OVCAR-8 ovarian was determined as 6.7 µM; in the experiment on SW-620 colon, 6.75 µM; with MDA-MB-231 breast it was 8.78 µM; with RPMI-8226 leukemia, 9.23 µM; in the experiment with DU-145 prostate it was 28.1 µM; in the experiment with SN12C renal, 6.47 µM. Besides, the TGI worked out at 3.73 µM in the experiment with HCT-116 colon; 6.78 µM in the experiment with CAKI-1 renal; 4.48 µM in the experiment with SK-OV-3 ovarian; 7.8 µM in the experiment with HOP-62 NSCLC; 4.9 µM in the experiment on MALME-3M melanoma.
Consider `O=[N+]([O-])c1cccc2nccc(NCCCO)c12`, for which the TGI is 37.3 µM in the experiment with OVCAR-8 ovarian; 27.6 µM in the experiment with SW-620 colon; 41.4 µM in the experiment with MDA-MB-231 breast; 46.6 µM in the experiment on RPMI-8226 leukemia; 35.3 µM in the experiment on DU-145 prostate; 28 µM with SN12C renal. The TGI with HCT-116 colon is greater than 100 µM; in the experiment on CAKI-1 renal it was 35.4 µM; with SK-OV-3 ovarian, 61 µM; with HOP-62 NSCLC it was 35.4 µM; in the experiment on MALME-3M melanoma, 22.1 µM.

For the origin of these results see PubChem BioAssay (NCI).
